Reference: ChEMBL document CHEMBL6103618, “Discovery of Novel Oxazolo[4,3-f]purine Derivatives as Antitumor Agents through PPIA Interaction” (J Med Chem, 2025)

What was measured:
[1] = biological target: T1, Peptidyl-prolyl cis-trans isomerase A (Homo sapiens, UniProt P62937); assay: Inhibition of PPIA (unknown origin) using N-succinyl-Ala-Ala-Pro-Phe-p-nitroanilide as substrate preincubated for 1 hr followed by substrate addition measured for 6 mins by absorbance based assay
[2] = biological target: T1, Peptidyl-prolyl cis-trans isomerase A; assay: Inhibition of PPIA (unknown origin)
HCT-116 = assay: Antiproliferative activity against human HCT-116 cells assessed as inhibition of cell viability incubated for 48 hrs by CCK8 assay; type: functional, cell-based; settings: HCT-116, 48 h
HepG2 = assay: Antiproliferative activity against human HepG2 cells assessed as inhibition of cell viability incubated for 48 hrs by CCK8 assay; type: functional, cell-based; settings: HepG2, 48 h
CT26 = assay: Antiproliferative activity against mouse CT26 cells assessed as inhibition of cell viability incubated for 48 hrs by CCK8 assay; type: functional, cell-based; settings: CT26, 48 h
MCF7 = assay: Antiproliferative activity against human MCF7 cells assessed as inhibition of cell viability incubated for 48 hrs by CCK8 assay; type: functional, cell-based; settings: MCF7, 48 h
HeLa = assay: Antiproliferative activity against human HeLa cells assessed as inhibition of cell viability incubated for 48 hrs by CCK8 assay; type: functional, cell-based
SW480 = assay: Antiproliferative activity against human SW480 cells assessed as inhibition of cell viability incubated for 48 hrs by CCK8 assay; type: functional, cell-based; settings: SW480, 48 h
PANC-1 = assay: Antiproliferative activity against human PANC-1 cells assessed as inhibition of cell viability incubated for 48 hrs by CCK8 assay; type: functional, cell-based; settings: PANC-1, 48 h
[3] = biological target: T1, Peptidyl-prolyl cis-trans isomerase A; assay: Binding affinity to PPIA (unknown origin) assessed as dissociation constant
[4] = Toxicity in BALB/c mouse implanted with mouse CT26 cells assessed as histopathological change in spleen at 45 mg/kg, ip qd treated for 14 days by H and E staining based analysis; type: organism-based; settings: in vivo, 336 h, time 14 day
[5] = Toxicity in BALB/c mouse implanted with mouse CT26 cells assessed as histopathological change in lung at 45 mg/kg, ip qd treated for 14 days by H and E staining based analysis; type: organism-based; settings: in vivo, 336 h, time 14 day
[6] = Toxicity in BALB/c mouse implanted with mouse CT26 cells assessed as histopathological change in liver at 45 mg/kg, ip qd treated for 14 days by H and E staining based analysis; type: organism-based; settings: in vivo, 336 h, time 14 day
[7] = Toxicity in BALB/c mouse implanted with mouse CT26 cells assessed as histopathological change in heart at 45 mg/kg, ip qd treated for 14 days by H and E staining based analysis; type: organism-based; settings: in vivo, 336 h, time 14 day
[8] = Toxicity in BALB/c mouse implanted with mouse CT26 cells assessed as histopathological change in kidney at 45 mg/kg, ip qd treated for 14 days by H and E staining based analysis; type: organism-based; settings: in vivo, 336 h, time 14 day
[9] = Toxicity in BALB/c mouse implanted with mouse CT26 cells assessed as change in body weight at 45 mg/kg, ip qd treated for 14 days; type: organism-based; settings: in vivo, 336 h, time 14 day

T1 sequence (P62937 whole entry): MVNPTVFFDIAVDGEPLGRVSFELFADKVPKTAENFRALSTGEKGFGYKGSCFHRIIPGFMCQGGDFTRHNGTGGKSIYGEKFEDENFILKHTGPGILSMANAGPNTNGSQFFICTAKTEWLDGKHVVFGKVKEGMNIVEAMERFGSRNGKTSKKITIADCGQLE

| SMILES | IC50 (HCT-116) | IC50 (HepG2) | IC50 (CT26) | IC50 (MCF7) | IC50 (HeLa) | IC50 (SW480) | IC50 (PANC-1) | also measured |
| --- | --- | --- | --- | --- | --- | --- | --- | --- |
| CC[C@H]1C[C@H](C)[C@@]2(NC1=O)O[C@@H](C[C@H](O)[C@@H](C)CC/C=C/C=C(\C)[C@@H]1C/C=C/C=C/[C@H](O)[C@H](C)[C@@H](O)[C@@H](CCC(C)=O)C(=O)N[C@@H](C(C)C)C(=O)N[C@@H](Cc3cc(O)cc(F)c3)C(=O)N3CCC[C@H](N3)C(=O)O1)[C@H](C)[C@H](O)[C@@H]2C | – | – | – | – | – | – | – | IC50 [1]: 0.00049 µM |
| C.CC[C@@H]1NC(=O)[C@H]([C@H](O)[C@H](C)CCCCCCNC(C)=O)N(C)C(=O)[C@H](C(C)C)N(C)C(=O)[C@H](CC(C)C)N(C)C(=O)[C@H](CC(C)C)N(C)C(=O)[C@@H](C)NC(=O)[C@H](C)NC(=O)[C@H](CC(C)C)N(C)C(=O)[C@H](C(C)C)NC(=O)[C@H](CC(C)C)N(C)C(=O)[C@@H](C)N(C)C1=O | – | – | – | – | – | – | – | Ki [2]: 0.0025 µM |
| C=C(C(=O)OC)N1c2nc(Cl)nc(Cl)c2N2C(c3ccccc3Cl)OC(C(=O)OCC)(C(=O)OCC)C12 (racemic) | 0.67 µM | 3.25 µM | 1.12 µM | 1.9 µM | 0.89 µM | 5.43 µM | 4.46 µM | – |
| C=C(C(=O)OC)N1c2nc(Cl)nc(Cl)c2N2C(c3ccccc3Br)OC(C(=O)OCC)(C(=O)OCC)C12 (racemic) | 3.11 µM | 4.87 µM | 2.5 µM | 3.49 µM | 2.15 µM | 6.99 µM | 4.61 µM | – |
| C/C=C/C[C@@H](C)[C@@H](O)[C@H]1C(=O)N[C@@H](CC)C(=O)N(C)[C@H](C)C(=O)N(CC)[C@@H](C(C)C)C(=O)N[C@@H](C(C)C)C(=O)N(C)[C@@H](CC(C)C)C(=O)N[C@@H](C)C(=O)N[C@H](C)C(=O)N(C)[C@@H](CC(C)C)C(=O)N(C)[C@@H](CC(C)C)C(=O)N(C)[C@@H](C(C)C)C(=O)N1C [ALISPORIVIR] | – | – | – | – | – | – | – | Kd [3]: 0.008 µM |
| O=c1[nH]cc(F)c(=O)[nH]1 [FLUOROURACIL] | – | 21.9 µM | 3.35 µM | – | 4.48 µM | 14.2 µM | 14.7 µM | Activity [4]: Non-toxic; Activity [5]: Non-toxic; Activity [6]: Non-toxic; Activity [7]: Non-toxic; Activity [8]: Non-toxic; Activity [9]: Toxic |
